From article PMC8042770, “Odorant Receptors for Detecting Flowering Plant Cues Are Functionally Conserved across Moths and Butterflies” (Molecular Biology and Evolution, 2020)
“Also recorded” adds a separate entry of the source.

Tests used:
HarmOR60 = target: T1, HarmOR60 (Helicoverpa armigera, UniProt A0A7T3N1B9); assay: Xenopus oocyte two-electrode voltage clamp, HarmOR60 + Orco; assay type: cell-based; conditions: HarmOR60; dose response in oocytes; unit M
T1 sequence (A0A7T3N1B9 1-391): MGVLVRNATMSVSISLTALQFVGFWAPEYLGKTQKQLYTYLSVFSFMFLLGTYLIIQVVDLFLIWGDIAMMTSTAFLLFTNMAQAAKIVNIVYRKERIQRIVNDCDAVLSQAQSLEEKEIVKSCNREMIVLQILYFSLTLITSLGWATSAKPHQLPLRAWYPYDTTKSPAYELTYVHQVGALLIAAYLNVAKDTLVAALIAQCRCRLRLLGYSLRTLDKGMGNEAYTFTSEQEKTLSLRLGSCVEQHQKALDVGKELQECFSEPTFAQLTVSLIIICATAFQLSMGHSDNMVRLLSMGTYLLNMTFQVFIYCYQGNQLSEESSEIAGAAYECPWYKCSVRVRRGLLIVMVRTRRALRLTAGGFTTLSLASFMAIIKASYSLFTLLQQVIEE
Procedure: (§1) In order to expand our analysis on the response properties of HarmORs, we conducted dose–response analyses for the 28 functional HarmORs. […] Six HarmORs (OR3, 22, 48, 50, 56, and 66) could not be activated by any ligand at 10^−5 M. For the other 22 HarmORs, dose–response curves were generated and EC50 values of their major ligands were calculated (fig. 2A and supplementary table S2, Supplementary Material online). The HarmOR repertoire was highly efficient in terpene detection, since the lowest EC50 values were obtained for such compounds. Many of these terpenes have been proposed to be defensive chemicals of plants. […] DMNT is also one of the oviposition deterring compounds found in larval frass of some Lepidoptera species such as S. littoralis ([Anderson et al. 1993]).
(§2) Functional characterization of individual ORs was performed by heterologous expression in Xenopus oocytes combined with a two-electrode voltage-clamp system ([Wang et al. 2010]). Briefly, the full-length gene of each OR and Orco were subcloned into the eukaryotic expression vector pT7TS. cRNAs were generated from linearized expression vectors using the mMESSAGE mMACHINE T7 kit (Ambion, Austin, TX). Then, the cRNA mixture of ORx and Orco (27.6 ng each) was injected (Nanoliter 2010, WPI Inc., Sarasota, FL) into oocytes (stage V–VII). The respective Orcos of different species were used for functional studies of OR42 orthologs except for the four butterfly species (V. tameamea, P. xuthus, D. plexippus, and P. rapae), in which we used the Orco from P. xuthus. After incubation in nutrient solution at 18 °C for 3–5 days, the response profile of each oocyte to multiple plant odorants was recorded via a two-electrode voltage clamp (OC-725C oocyte clamp, Warner Instruments, Hamden, CT) at a holding potential of −80 mV. Data were acquired by using a Digidata 1440 A and were analyzed by pCLAMP 10.2 software (Axon Instruments Inc., Union City, CA). […]

[1] = test system: H. armigera moth antennae; assay: Electroantennography (EAG), wild-type vs HarmOR42 knock-out moths; assay type: in vivo, Helicoverpa armigera; conditions: single odorants, 1 μg
From the text: We next conducted a loss-of-function study by generating a HarmOR42-lacking H. armigera strain by CRISPR/Cas9 targeting the first coding exon. Homozygous mutants were obtained with a large segment deletion of 203 bp and a 6-bp nonhomologous insertion in the genome (fig. 6B), introducing a premature stop codon in the coding sequence. […] The most likely hypothesis is that HarmOR42 is not the major receptor for sensing this compound in H. armigera. As a control, we tested the response of male moths to the sex pheromone component Z11-16: Ald that is not a ligand of HarmOR42. As expected, we observed no difference between the EAG responses of mutant and wild-type moths to this compound.
The antennae of 2- to 3-day-old virgin male and female moths were cut at the base of the flagellum. After removing the tip, one antenna was inserted between two glass electrodes filled with 0.1 M KCl solution. In each test, a 10-μl solution of each odorant was added onto a piece of filter paper (0.5 cm × 0.5 cm) and then inserted into a Pasteur pipette. About 100 ng/μl stock solutions of individual odorants and different doses of the mixture IAC were prepared with paraffin oil. A continuous airflow of 30 ml/s was produced by a stimulus controller (CS-55, Syntech, Kirchzarten, Germany). Odor stimulation was controlled by a puff of purified air (0.2 s at 10 ml/s airflow) from the CS-55. EAG signals were amplified with a 10× AC/DC headstage preamplifier (Syntech) and further acquired with an Intelligent Data Acquisition Controller (IDAC-4-USB, Syntech) ([Cao et al. 2016]). The signals were recorded, monitored, and analyzed using Syntech EAG-software (Syntech, Germany). The EAG response values for each compound were calculated by subtracting the value of the same antennae corresponding to a solvent blank of paraffin oil.

HarmOR42 = HarmOR42 (Helicoverpa armigera, UniProt A0A7T3KAF6); assay: Xenopus oocyte two-electrode voltage clamp, HarmOR42 + Orco; assay type: cell-based; conditions: 67 odorants at 10^−4 M
From the text: In preliminary screening, we used a high dosage (10^−4 M) of odorants. […] Most functional ORs responded robustly to multiple odorants. The strongest response (up to ∼6,000 nanoampere, nA) we detected was that of HarmOR42 toward the aromatic compound PAA. Further, the response profiles of the 28 HarmORs appeared to be highly differentiated, with no apparent overlap in their tuning spectra (with the exception of HarmOR12 and 36) according to functional cluster analysis (fig. 1A).
as §1
(§3) Functional characterization of individual ORs was performed by heterologous expression in Xenopus oocytes combined with a two-electrode voltage-clamp system ([Wang et al. 2010]). Briefly, the full-length gene of each OR and Orco were subcloned into the eukaryotic expression vector pT7TS. cRNAs were generated from linearized expression vectors using the mMESSAGE mMACHINE T7 kit (Ambion, Austin, TX). Then, the cRNA mixture of ORx and Orco (27.6 ng each) was injected (Nanoliter 2010, WPI Inc., Sarasota, FL) into oocytes (stage V–VII). The respective Orcos of different species were used for functional studies of OR42 orthologs except for the four butterfly species (V. tameamea, P. xuthus, D. plexippus, and P. rapae), in which we used the Orco from P. xuthus. After incubation in nutrient solution at 18 °C for 3–5 days, the response profile of each oocyte to multiple plant odorants was recorded via a two-electrode voltage clamp (OC-725C oocyte clamp, Warner Instruments, Hamden, CT) at a holding potential of −80 mV. Data were acquired by using a Digidata 1440 A and were analyzed by pCLAMP 10.2 software (Axon Instruments Inc., Union City, CA).
(§4) Stock solutions of each odorant were prepared at 1 M using DMSO as a solvent, and each odorant was diluted in 1× Ringer’s solution to the indicated concentrations for electrophysiological recording. For functional screening of each HarmOR, a panel of 67 odorants belonging to three types of chemical classes: terpenes, aromatics, and aliphatics (short-chain fatty acid) were used (supplementary table S1, Supplementary Material online). For functional studies of OR42 orthologs from different species, six odorants including PAA, benzaldehyde, (E)-2-hexen-1-al, cinnamaldehyde, 2-phenylethanol, and heptanal were used.

[2] = test system: HarmOR42 orthologs from 11 lepidopteran species; assay: Xenopus oocyte voltage clamp of HarmOR42 orthologs, six-odorant screen; assay type: cell-based; conditions: six compounds at 10^−4 M; 11 species
From the text: We gathered additional experimental evidence to support this conservation of a PAA-sensing function by performing in vitro functional characterization of HarmOR42 orthologs from 11 lepidopteran species belonging to eight families (fig. 5B). […] It should be noted that the species studied here included three Noctuidae species (H. armigera, H. assulta, and Mythimna separata), four moths from Bombycidae (Bombyx mori), Crambidae (Chilo suppressalis), Sphingidae (Manduca sexta), and Tortricidae (Grapholitha molesta) ([Mitter et al. 2017]; [Kawahara et al. 2019]), and four diurnal butterfly species from diverse families (Vanessa tameamea, Papilio xuthus, Danaus plexippus, and Pieris rapae) (fig. 5B). […]
(§5) Functional characterization of individual ORs was performed by heterologous expression in Xenopus oocytes combined with a two-electrode voltage-clamp system ([Wang et al. 2010]). […] After incubation in nutrient solution at 18 °C for 3–5 days, the response profile of each oocyte to multiple plant odorants was recorded via a two-electrode voltage clamp (OC-725C oocyte clamp, Warner Instruments, Hamden, CT) at a holding potential of −80 mV. Data were acquired by using a Digidata 1440 A and were analyzed by pCLAMP 10.2 software (Axon Instruments Inc., Union City, CA). […]

EsemOR19 = assay: Xenopus oocyte voltage clamp of EsemOR19; assay type: cell-based, Eriocrania semipurpurella; conditions: 10^−4 M
From the text: We also examined the response profile of EsemOR19 from E. semipurpurella, an OR that falls close to the HarmOR42-defined clade but that is not considered as a HarmOR42 ortholog. […] We also characterized the function of RnubOR13 from R. nubila (Trichoptera), a species from a sister order of Lepidoptera. […] Unfortunately, the putative E. semipurpurella OR that would consist of EsemOR34 + 35 and that falls at the base of the HarmOR42 clade could not be tested as it is incomplete.
Full-length coding sequences of 45 ORs (including Orco) of H. armigera, and OR42 and Orco orthologs in B. mori, H. assulta, G. molesta, and M. separate were amplified from the antennal cDNA of each species adults by PCR with specific primer pairs of each gene. […]
as §5

HarmOR59 = HarmOR59 (Helicoverpa armigera, UniProt A0A7T3KAU6); assay: Xenopus oocyte two-electrode voltage clamp, HarmOR59 + Orco; assay type: cell-based
Procedure: as §1, §3, §4

HarmOR19 = target: T2, HarmOR19 (Helicoverpa armigera, UniProt A0A7T3N0J7); assay: Xenopus oocyte two-electrode voltage clamp, HarmOR19 + Orco; assay type: cell-based; conditions: dose response in oocytes, unit M
T2 sequence (A0A7T3N0J7 1-402): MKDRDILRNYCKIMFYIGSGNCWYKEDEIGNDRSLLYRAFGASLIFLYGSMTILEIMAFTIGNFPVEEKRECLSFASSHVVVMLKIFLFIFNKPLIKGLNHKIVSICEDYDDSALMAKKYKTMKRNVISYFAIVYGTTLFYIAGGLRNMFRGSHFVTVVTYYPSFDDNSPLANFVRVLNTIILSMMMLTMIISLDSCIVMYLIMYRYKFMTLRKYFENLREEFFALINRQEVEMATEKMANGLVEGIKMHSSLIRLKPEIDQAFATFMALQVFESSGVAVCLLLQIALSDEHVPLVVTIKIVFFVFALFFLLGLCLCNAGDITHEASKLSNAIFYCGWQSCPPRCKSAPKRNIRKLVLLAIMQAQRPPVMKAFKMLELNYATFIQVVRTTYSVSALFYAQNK
Procedure: as §1, §2

HarmOR27 = target: T3, HarmOR27 (Helicoverpa armigera, UniProt A0A7T3KAG1); assay: Xenopus oocyte two-electrode voltage clamp, HarmOR27 + Orco; assay type: cell-based
T3 sequence (A0A7T3KAG1 1-426): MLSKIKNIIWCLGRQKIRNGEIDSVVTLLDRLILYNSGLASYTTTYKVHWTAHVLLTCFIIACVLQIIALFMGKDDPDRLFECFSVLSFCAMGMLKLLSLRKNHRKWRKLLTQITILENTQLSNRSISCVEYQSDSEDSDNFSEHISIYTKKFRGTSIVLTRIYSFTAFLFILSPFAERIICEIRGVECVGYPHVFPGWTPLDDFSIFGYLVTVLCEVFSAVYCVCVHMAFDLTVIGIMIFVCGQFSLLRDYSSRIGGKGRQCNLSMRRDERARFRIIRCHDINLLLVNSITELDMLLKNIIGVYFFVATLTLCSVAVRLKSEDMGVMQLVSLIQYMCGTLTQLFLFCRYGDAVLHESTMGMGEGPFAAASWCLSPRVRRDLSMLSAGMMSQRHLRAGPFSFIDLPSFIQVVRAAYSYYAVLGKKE
Procedure: as §1, §3, §4

HarmOR31 = HarmOR31 (Helicoverpa armigera, UniProt A0A7T3N2E9); assay: Xenopus oocyte two-electrode voltage clamp, HarmOR31 + Orco; assay type: cell-based
From the text: In order to expand our analysis on the response properties of HarmORs, we conducted dose–response analyses for the 28 functional HarmORs. […] Many of these terpenes have been proposed to be defensive chemicals of plants.
Briefly, the full-length gene of each OR and Orco were subcloned into the eukaryotic expression vector pT7TS. cRNAs were generated from linearized expression vectors using the mMESSAGE mMACHINE T7 kit (Ambion, Austin, TX). […] The respective Orcos of different species were used for functional studies of OR42 orthologs except for the four butterfly species (V. tameamea, P. xuthus, D. plexippus, and P. rapae), in which we used the Orco from P. xuthus.
as §4

HarmOR67 = HarmOR67 (Helicoverpa armigera, UniProt A0A7T3KAH1); assay: Xenopus oocyte two-electrode voltage clamp, HarmOR67 + Orco; assay type: cell-based; conditions: dose response in oocytes, unit M
Procedure: as §1, §2

HarmOR43 = target: T4, HarmOR43 (Helicoverpa armigera, UniProt A0A7T3KAF8); assay: Xenopus oocyte two-electrode voltage clamp, HarmOR43 + Orco; assay type: cell-based; conditions: dose response in oocytes, unit M
T4 sequence (A0A7T3KAF8 1-415): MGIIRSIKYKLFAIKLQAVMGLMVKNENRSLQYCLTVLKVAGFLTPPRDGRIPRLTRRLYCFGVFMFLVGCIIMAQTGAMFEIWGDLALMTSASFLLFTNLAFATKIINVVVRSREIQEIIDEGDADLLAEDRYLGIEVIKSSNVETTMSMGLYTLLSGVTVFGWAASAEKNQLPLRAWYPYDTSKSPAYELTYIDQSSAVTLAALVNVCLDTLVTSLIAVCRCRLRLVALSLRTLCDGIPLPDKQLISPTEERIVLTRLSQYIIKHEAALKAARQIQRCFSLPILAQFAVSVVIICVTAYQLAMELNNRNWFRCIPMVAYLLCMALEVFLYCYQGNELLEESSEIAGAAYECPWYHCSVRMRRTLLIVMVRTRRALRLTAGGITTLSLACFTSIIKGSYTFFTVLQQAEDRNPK
Procedure: as §1, §2

Sequence of HarmOR42 (A0A7T3KAF6 entry or part of it): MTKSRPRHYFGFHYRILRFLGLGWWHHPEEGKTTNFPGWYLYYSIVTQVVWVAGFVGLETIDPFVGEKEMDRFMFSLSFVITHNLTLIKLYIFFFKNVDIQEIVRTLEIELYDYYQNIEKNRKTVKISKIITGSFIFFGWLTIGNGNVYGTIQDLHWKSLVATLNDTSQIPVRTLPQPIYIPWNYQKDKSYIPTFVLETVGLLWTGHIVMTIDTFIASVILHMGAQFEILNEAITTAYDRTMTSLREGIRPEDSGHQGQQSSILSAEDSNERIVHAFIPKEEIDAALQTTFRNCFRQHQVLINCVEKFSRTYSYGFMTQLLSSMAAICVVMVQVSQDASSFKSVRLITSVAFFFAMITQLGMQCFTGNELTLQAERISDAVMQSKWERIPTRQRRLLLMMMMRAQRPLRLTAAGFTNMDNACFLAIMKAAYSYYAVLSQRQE
Sequence of HarmOR31 (A0A7T3N2E9 entry or part of it): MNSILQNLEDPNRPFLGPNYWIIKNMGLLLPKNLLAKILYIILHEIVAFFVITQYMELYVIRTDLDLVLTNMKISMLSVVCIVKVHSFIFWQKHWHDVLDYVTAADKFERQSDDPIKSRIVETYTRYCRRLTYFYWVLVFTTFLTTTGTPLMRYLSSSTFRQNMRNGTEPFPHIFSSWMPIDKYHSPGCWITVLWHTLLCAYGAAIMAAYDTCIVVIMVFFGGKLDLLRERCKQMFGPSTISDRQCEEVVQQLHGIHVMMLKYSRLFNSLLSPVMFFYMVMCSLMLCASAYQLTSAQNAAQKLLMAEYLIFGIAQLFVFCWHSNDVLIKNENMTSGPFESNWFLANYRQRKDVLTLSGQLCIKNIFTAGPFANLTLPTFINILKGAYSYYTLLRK
Sequence of HarmOR59 (A0A7T3KAU6 entry or part of it): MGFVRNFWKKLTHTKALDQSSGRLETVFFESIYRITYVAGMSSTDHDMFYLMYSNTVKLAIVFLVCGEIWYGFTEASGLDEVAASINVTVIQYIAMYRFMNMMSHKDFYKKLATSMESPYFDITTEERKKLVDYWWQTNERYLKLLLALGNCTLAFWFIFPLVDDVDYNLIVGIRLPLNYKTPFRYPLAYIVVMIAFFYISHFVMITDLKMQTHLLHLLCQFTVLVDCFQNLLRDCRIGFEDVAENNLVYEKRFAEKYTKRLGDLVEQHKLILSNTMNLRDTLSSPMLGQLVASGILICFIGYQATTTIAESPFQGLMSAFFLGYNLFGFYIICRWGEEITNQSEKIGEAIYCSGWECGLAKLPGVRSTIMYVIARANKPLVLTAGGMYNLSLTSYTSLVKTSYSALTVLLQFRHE
Sequence of HarmOR67 (A0A7T3KAH1 entry or part of it): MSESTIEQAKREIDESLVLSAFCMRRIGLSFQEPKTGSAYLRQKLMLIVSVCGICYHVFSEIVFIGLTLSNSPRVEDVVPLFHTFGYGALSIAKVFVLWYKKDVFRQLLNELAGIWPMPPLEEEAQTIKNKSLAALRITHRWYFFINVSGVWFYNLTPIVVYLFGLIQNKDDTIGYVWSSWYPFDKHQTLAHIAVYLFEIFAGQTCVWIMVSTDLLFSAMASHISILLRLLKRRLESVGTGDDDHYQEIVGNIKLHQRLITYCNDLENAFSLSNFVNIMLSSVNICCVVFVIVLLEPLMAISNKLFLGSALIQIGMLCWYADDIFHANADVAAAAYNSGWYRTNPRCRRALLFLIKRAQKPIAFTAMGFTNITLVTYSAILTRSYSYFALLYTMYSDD

Row | Compound | EAG response of HarmOR42 knock-out mutants compared with wild-type moths [1] | ligand tuning of HarmOR42 (HarmOR42) | EC50 (HarmOR27) [µM] | EC50 (HarmOR43) [µM] | also measured
1 | C[C@@H]1CC[C@H]2C(C)(C)[C@H]3C[C@@]12CC[C@@]3(C)O [Cedrol] |  |  |  |  | EC50 (HarmOR60): 8.6 µM
2 | O=C/C=C/c1ccccc1 [Cinnamaldehyde] | significantly decreased | minor ligands |  |  | ligand tuning of HarmOR42 orthologs [2]: minor ligands; response of EsemOR19 (EsemOR19): very weak current; also recorded: responded; EC50 (HarmOR59): 1.72 µM
3 | CCOC(=O)c1ccccc1 [Ethyl benzoate] |  |  | 68.7 |  | EC50 (HarmOR19): 60.2 µM; EC50 (HarmOR31): 13.2 µM
4 | CCCCCCC=O [Heptanal] | significantly decreased | minor ligands |  |  | EC50 (HarmOR67): 302 µM
5 | COC(=O)c1ccccc1 [Methyl benzoate] |  |  | 13.1 | 15.5 | 
6 | COC(=O)c1ccccc1O [Methyl salicylate] |  |  | 15.6 | 15.8 | 
